In patent US10065941B2, “Aminotriazine derivative and pharmaceutical composition comprising the same” (Shionogi & Co., Ltd., priority 2013, dated 2018):

Target: human P2X3 receptor (Homo sapiens (Human), UniProt P56373)
Test: Evaluation of human P2X3 receptor inhibitory activity (Test Example 1)
Type: cell-based
Conditions: C6BU-1 cell transfected with human P2X3 receptor gene, FLIPR 384
In short: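 FLIPR calcium read-out: signal taken as peak fluorescence after ATP addition divided by starting fluorescence, and IC50 calculated from it. Compound added 5 min before 150 nM ATP solution (pre-dispense stock) to Fluo-3-AM-loaded C6BU-1 cells stably transfected with human P2X3; HEPES buffer pH 7.5 with probenecid.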

Chain of human P2X3 receptor (P56373 whole entry): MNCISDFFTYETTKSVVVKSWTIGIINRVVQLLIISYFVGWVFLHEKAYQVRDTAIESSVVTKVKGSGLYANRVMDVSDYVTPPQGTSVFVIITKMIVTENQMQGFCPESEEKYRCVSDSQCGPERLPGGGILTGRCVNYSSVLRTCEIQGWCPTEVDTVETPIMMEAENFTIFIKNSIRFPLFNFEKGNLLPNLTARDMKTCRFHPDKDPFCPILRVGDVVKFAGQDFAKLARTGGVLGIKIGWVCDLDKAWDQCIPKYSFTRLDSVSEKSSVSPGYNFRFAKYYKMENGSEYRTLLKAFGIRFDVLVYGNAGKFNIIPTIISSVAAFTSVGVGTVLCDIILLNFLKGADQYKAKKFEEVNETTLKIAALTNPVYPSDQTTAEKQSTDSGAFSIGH

SMILES	IC50 [nM]
C[C@@H](Cn1c(=O)[nH]/c(=N\c2ccc(Oc3cccc(Cl)n3)cc2)n(Cc2ccc(Cl)cc2)c1=O)C(=O)O [Compound I-014]	7
O=C(O)C1(Cn2c(=O)[nH]/c(=N\c3ccc(Oc4cccc(F)n4)cc3)n(Cc3ccc(Cl)cc3)c2=O)CC1 [Compound I-017]	6
C[C@@H](Cn1c(=O)[nH]/c(=N\c2ccc(Oc3cccc(F)n3)cc2)n(Cc2ccc(F)cc2F)c1=O)C(=O)O [Compound I-029]	14
Cc1ccc(Oc2ccc(/N=c3\[nH]c(=O)n(CC(C)(C)C(=O)O)c(=O)n3Cc3ccc(Cl)cc3)cc2)nc1 [Compound I-058]	6
O=c1[nH]/c(=N\c2ccc(Oc3ncccc3F)cc2)n(Cc2ccc(Cl)cc2)c(=O)n1[C@H]1C[C@H](C(=O)O)C1 [Compound I-063]	9
C[C@@H](Cn1c(=O)[nH]/c(=N\c2ccc(Oc3cc(F)ccn3)cc2)n(Cc2ccc(Cl)cc2)c1=O)C(=O)O [Compound I-070]	5
C[C@@H](Cn1c(=O)[nH]/c(=N\c2ccc(Oc3ccccn3)cc2)n(Cc2ccc(Cl)cc2)c1=O)C(=O)O [Compound I-127]	4
COc1cc(Oc2ccc(/N=c3\[nH]c(=O)n([C@@H](C)[C@@H](C)C(=O)O)c(=O)n3Cc3ccc(Cl)cc3)cc2)ccn1 [Compound R-009]	7
Cc1cc(/N=c2\[nH]c(=O)n(CCC(=O)O)c(=O)n2Cc2ccc(Cl)cc2)ccc1Oc1ccccn1 [Compound R-283]	28
O=C(O)CCn1c(=O)[nH]/c(=N\c2ccc(Oc3ccc(Cl)cn3)cc2)n(Cc2ccc(Cl)cc2)c1=O [Compound R-284]	5
Cc1ccc(Cn2c(=O)n(CCC(=O)O)c(=O)[nH]/c2=N\c2ccc(Oc3ccc(Cl)cn3)cc2)cc1 [Compound R-285]	6
COC(=O)CCn1c(=O)[nH]/c(=N\c2ccc(Oc3cccc(F)n3)cc2)n(Cc2ccc(CF)cc2)c1=O [Compound R-286]	6
COC(=O)CCn1c(=O)[nH]/c(=N\c2ccc(Oc3ccc(Cl)cn3)cc2)n(Cc2ccc(Cl)cc2)c1=O [Compound R-287]	6
COC(=O)CCn1c(=O)[nH]/c(=N\c2ccc(Oc3ncccc3F)cc2)n(Cc2ccc(CF)cc2)c1=O [Compound R-288]	12
COC(=O)CCn1c(=O)[nH]/c(=N\c2ccc(Oc3ccc(Cl)cn3)cc2)n(Cc2ccc(C)cc2)c1=O [Compound R-289]	5
COC(=O)CCn1c(=O)[nH]/c(=N\c2ccc(Oc3ccccn3)c(C)c2)n(Cc2ccc(C)cc2)c1=O [Compound R-290]	6
COC(=O)CCn1c(=O)[nH]/c(=N\c2ccc(Oc3ccccn3)c(C)c2)n(Cc2ccc(Cl)cc2)c1=O [Compound R-291]	6
COC(=O)CCn1c(=O)[nH]/c(=N\c2ccc(Oc3ccccn3)c(F)c2)n(Cc2ccc(C)cc2)c1=O [Compound R-292]	4
COC(=O)CCn1c(=O)[nH]/c(=N\c2ccc(Oc3ccccn3)c(F)c2)n(Cc2ccc(Cl)cc2)c1=O [Compound R-293]	4
CCOC(=O)CCCn1c(=O)[nH]/c(=N\c2ccc(Oc3ncccc3F)cc2)n(Cc2ccc(C)cc2)c1=O [Compound R-294]	6

SMILES	IC50 [nM]
CCOC(=O)CCCn1c(=O)[nH]/c(=N\c2ccc(Oc3ccc(F)cn3)cc2)n(Cc2ccc(C)cc2)c1=O [Compound R-295]	6
CCOC(=O)CCCn1c(=O)[nH]/c(=N\c2ccc(Oc3cccc(F)n3)cc2)n(Cc2ccc(C)cc2)c1=O [Compound R-296]	5
O=C(O)CCn1c(=O)[nH]/c(=N\c2ccc(Oc3ccccn3)c(Cl)c2)n(Cc2ccc(Cl)cc2)c1=O [Compound R-297]	8
Cc1ccc(Cn2c(=O)n(CCC(=O)O)c(=O)[nH]/c2=N\c2ccc(Oc3ccccn3)c(Cl)c2)cc1 [Compound R-298]	9
CC(=O)c1cccc(Oc2ccc(/N=c3\[nH]c(=O)n(CCC(=O)O)c(=O)n3Cc3ccc(Cl)cc3)cc2)n1 [Compound R-299]	20
COC(=O)CCn1c(=O)[nH]/c(=N\c2ccc(Oc3ccccn3)c(Cl)c2)n(Cc2ccc(Cl)cc2)c1=O [Compound R-300]	8
COC(=O)CCn1c(=O)[nH]/c(=N\c2ccc(Oc3ccccn3)c(Cl)c2)n(Cc2ccc(C)cc2)c1=O [Compound R-301]	5
COC(=O)CCn1c(=O)[nH]/c(=N\c2ccc(Oc3cccc(C(C)=O)n3)cc2)n(Cc2ccc(Cl)cc2)c1=O [Compound R-302]	6
COC(=O)CCn1c(=O)[nH]/c(=N\c2ccc(Oc3ccc(C(C)=O)cn3)cc2)n(Cc2ccc(Cl)cc2)c1=O [Compound R-303]	3
COC(=O)CCn1c(=O)[nH]/c(=N\c2ccc(Oc3ccc(C(C)O)cn3)cc2)n(Cc2ccc(Cl)cc2)c1=O (stereo not drawn) [Compound R-304]	4
CC(=O)c1ccc(Oc2ccc(/N=c3\[nH]c(=O)n(CCC(=O)O)c(=O)n3Cc3ccc(Cl)cc3)cc2)nc1 [Compound R-305]	7
CC(O)c1ccc(Oc2ccc(/N=c3\[nH]c(=O)n(CCC(=O)O)c(=O)n3Cc3ccc(Cl)cc3)cc2)nc1 (stereo not drawn) [Compound R-306]	14
CCOC(=O)Cn1c(=O)[nH]/c(=N\c2ccc(Oc3ccccn3)cc2)n(Cc2ccc(F)cc2)c1=O [Compound R-307]	13
CCOC(=O)Cn1c(=O)[nH]/c(=N\c2ccc(Oc3ccc(F)cn3)cc2)n(Cc2ccc(Cl)cc2)c1=O [Compound R-309]	4
CCOC(=O)Cn1c(=O)[nH]/c(=N\c2ccc(Oc3ccc(Cl)cn3)cc2)n(Cc2ccc(Cl)cc2)c1=O [Compound R-310]	4
O=C(O)Cn1c(=O)[nH]/c(=N\c2ccc(Oc3ccc(F)cn3)cc2)n(Cc2ccc(Cl)cc2)c1=O [Compound R-311]	428
O=C(O)Cn1c(=O)[nH]/c(=N\c2ccc(Oc3ccc(Cl)cn3)cc2)n(Cc2ccc(Cl)cc2)c1=O [Compound R-312]	350
CCOC(=O)Cn1c(=O)[nH]/c(=N\c2ccc(Oc3ccc(C#N)cn3)cc2)n(Cc2ccc(Cl)cc2)c1=O [Compound R-313]	3
N#Cc1ccc(Oc2ccc(/N=c3\[nH]c(=O)n(CC(=O)O)c(=O)n3Cc3ccc(Cl)cc3)cc2)nc1 [Compound R-314]	48

Tested on: not listed separately
Test: Pharmacokinetic test: bioavailability and total body clearance (Test Example 15)
Type: in vivo
Conditions: SD rats, from AUCs of oral and intravenous groups
Protocol: • (1) Animals: SD rats were used • (2) Breeding conditions: SD rats were allowed to freely take solid food and sterilized tap water. • (3) Dose and grouping: orally or intravenously administered at a predetermined dose; grouping was as follows (Dose depends on the compound)
Oral administration: 1 mg/kg (n=2)
The total body clearance (CLtot) was calculated by dividing the dose by the AUC of the intravenous administration group.

SMILES	BA [%]
C[C@@H](Cn1c(=O)[nH]/c(=N\c2ccc(Oc3cccc(Cl)n3)cc2)n(Cc2ccc(Cl)cc2)c1=O)C(=O)O [Compound I-014]	106.2
O=C(O)C1(Cn2c(=O)[nH]/c(=N\c3ccc(Oc4cccc(F)n4)cc3)n(Cc3ccc(Cl)cc3)c2=O)CC1 [Compound I-017]	80.7
Cc1ccc(Cn2c(=O)n(C[C@H](C)C(=O)O)c(=O)[nH]/c2=N\c2ccc(Oc3ccc(F)cn3)cc2)cc1 [Compound I-040]	70.3
Cc1ccc(Oc2ccc(/N=c3\[nH]c(=O)n(CC(C)(C)C(=O)O)c(=O)n3Cc3ccc(Cl)cc3)cc2)nc1 [Compound I-058]	67.2
C[C@@H](Cn1c(=O)[nH]/c(=N\c2ccc(Oc3ccccn3)cc2)n(Cc2ccc(Cl)cc2)c1=O)C(=O)O [Compound I-127]	52.8

Tested on: not listed separately
Test: Metabolism stability test, pooled human hepatic microsomes (Test Example 11)
Type: in vitro ADME
Conditions: human liver microsomes, 30 minutes, compound concentration 0.5 μmol/L
Protocol: Using commercially available pooled human hepatic microsomes, a test compound is reacted for a constant time, a remaining rate is calculated by comparing a reacted sample and an unreacted sample, thereby, a degree of metabolism in liver is assessed.
A reaction was performed (oxidative reaction) at 37° C. for 0 minute or 30 minutes in the presence of 1 mmol/L NADPH in 0.2 mL of a buffer (50 mmol/L tris-HCl pH 7.4, 150 mmol/L potassium chloride, 10 mmol/L magnesium chloride) containing 0.5 mg protein/mL of human liver microsomes. After the reaction, 50 μL of the reaction solution was added to 100 μL of a methanol/acetonitrile=1/1 (v/v), mixed and centrifuged at 3000 rpm for 15 minutes. The test compound in the supernatant was quantified by LC/MS/MS, and a remaining amount of the test compound after the reaction was calculated, letting a compound amount at 0 minute reaction time to be 100%.
The remaining rate at the compound concentration 0.5 μmol/L are shown below.

SMILES	Metabolism Stability (remaining rate) [%]
C[C@@H](Cn1c(=O)[nH]/c(=N\c2ccc(Oc3cccc(F)n3)cc2)n(Cc2ccc(F)cc2F)c1=O)C(=O)O [Compound I-029]	100
O=c1[nH]/c(=N\c2ccc(Oc3ncccc3F)cc2)n(Cc2ccc(Cl)cc2)c(=O)n1[C@H]1C[C@H](C(=O)O)C1 [Compound I-063]	97
C[C@@H](Cn1c(=O)[nH]/c(=N\c2ccc(Oc3cc(F)ccn3)cc2)n(Cc2ccc(Cl)cc2)c1=O)C(=O)O [Compound I-070]	103

Target: rat P2X3 receptor (Rattus norvegicus (Rat), UniProt P49654)
Test: Evaluation of rat P2X3 receptor inhibitory activity (Test Example 3)
Type: cell-based
Conditions: rat P2X3 receptor gene expressed in C6BU-1 cell; read-out: ratP2X3 IC50
Protocol: Rat P2X3 receptor gene (GenBank accession number NM_031075) was expressed in C6BU-1 cell. The C6BU-1 cells were seeded in a 96-well microtiter plate at a concentration of 2500 cells/well and cultured in the medium (7.0% fetal bovine serum, 7.0% horse serum, and 1% antibiotic and antifungal in DMEM) for one day at 37° C. under 5% carbon dioxide atmosphere. The plasmid was transfected into the cells using transfection reagent FuGENE6 (Promega). The transfected cells were cultured in the medium for one day at 37° C. under 5% carbon dioxide atmosphere. […] Measurement of fluorescence intensity by FDSS 3000 was started, and 40 μL of DMSO solutions containing different concentrations of the test compound as prepared by dilution with dilution buffer (20 mM HEPES, 137 mM NaCl, 5.27 mM KCl, 0.9 mM MgCl2, 1.26 mM CaCl2, 5.6 mM D-glucose, 2.5 mM probenecid, 0.1% Pluronic F-127, pH7.5) were dispensed to each well through the built-in automatic dispenser. Five minutes after, 50 nM ATP solution (50 μL) prepared by dilution with the dilution buffer was dispensed through the built-in automatic dispenser, and the measurement of fluorescence intensity was continued for 4 min. For each well, the specific maximum fluorescence intensity was calculated as the ratio of the maximum fluorescence intensity after addition of the ATP solution to the fluorescence intensity at the starting of the measurement. […]

Chain of rat P2X3 receptor (P49654 whole entry): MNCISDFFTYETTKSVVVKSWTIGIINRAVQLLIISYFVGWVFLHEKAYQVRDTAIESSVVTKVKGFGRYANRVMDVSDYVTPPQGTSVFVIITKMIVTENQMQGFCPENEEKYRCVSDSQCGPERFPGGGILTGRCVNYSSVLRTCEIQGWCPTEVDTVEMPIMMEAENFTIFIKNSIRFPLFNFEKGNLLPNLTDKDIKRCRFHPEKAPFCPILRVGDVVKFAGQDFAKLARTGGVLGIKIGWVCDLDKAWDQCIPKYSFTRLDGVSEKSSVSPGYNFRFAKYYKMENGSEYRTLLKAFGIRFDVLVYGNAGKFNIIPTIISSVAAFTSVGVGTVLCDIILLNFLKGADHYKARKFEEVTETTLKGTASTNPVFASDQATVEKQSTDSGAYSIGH

SMILES	IC50 [nM]
COc1cc(Oc2ccc(/N=c3\[nH]c(=O)n([C@@H](C)[C@@H](C)C(=O)O)c(=O)n3Cc3ccc(Cl)cc3)cc2)ccn1 [Compound R-009]	4
